Source: US11077090B2, “Compounds and compositions and uses thereof” (Sunovion Pharmaceuticals Inc., priority 2016, dated 2021)

test system: compound-treated mice; assay: Neuropharmacological assay (SmartCube): behavioral activity signature and minimal effective dose; format: in vivo; settings: Mus musculus, ip, MED = dose having 50% or more total activity, read-out: Potency: minimal effective dose (MED)
In short: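 Mice dosed i.p. 15 min before test, compound in N-methyl-2-pyrrolidone/PEG/propylene glycol, 3 doses; video-captured behavior matched to reference-drug signatures, giving per-class probabilities at most efficacious dose. MED from doses typically 0.3–30 mpk, defined as lowest dose with ≥50% total activity.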

| SMILES | minimal effective dose |
| --- | --- |
| Cc1ccc2c(c1)CCOCC2N.Cl (stereo not drawn) [Example 36] | 3 to 10 mg/kg |
| Cc1cccc2c1COCCC2N.Cl (stereo not drawn) [Example 37] | 10 to 30 mg/kg |
| Cl.NC1CCOCc2cc(Cl)ccc21 (stereo not drawn) [Example 38] | 10 to 30 mg/kg |
| Cc1cccc2c1C(N)CCOC2.Cl (stereo not drawn) [Example 39] | 3 to 10 mg/kg |
| Cl.NC1CCOCc2c(Cl)cccc21 (stereo not drawn) [Example 40] | 3 to 10 mg/kg |
| Cl.NC1CCOCc2cccc(Cl)c21 (stereo not drawn) [Example 41] | 10 to 30 mg/kg |
| Cc1ccc2c(c1C)C(N)COC2.Cl (stereo not drawn) [Example 42, 5,6-Dimethylisochroman-4-amine hydrochloride] | < 3 mg/kg |
| Cc1ccc2c(c1C)C(N)CCOC2.Cl (stereo not drawn) [Example 43, 6,7-Dimethyl-1,3,4,5-tetrahydrobenzo [c]oxepin-5-amine hydrochloride] | 10 to 30 mg/kg |
| Cl.NC1COCc2ccc(Cl)c(Cl)c21 (stereo not drawn) [Example 44, 5,6-Dichloroisochroman-4-amine hydrochloride] | 3 to 10 mg/kg |
| Cc1ccc2c(c1Cl)C(N)COC2.Cl (stereo not drawn) [Example 45, 5-Chloro-6-methylisochroman-4-amine hydrochloride] | 3 to 10 mg/kg |
| Cc1cc(C)c2c(c1)C(N)COC2.Cl (stereo not drawn) [Example 46, 6,8-Dimethylisochroman-4-amine hydrochloride] | < 3 mg/kg |
| Cc1ccc(C)c2c1COCC2N.Cl (stereo not drawn) [Example 47, 5,8-Dimethylisochroman-4-amine hydrochloride] | < 3 mg/kg |

same assay, conditions: i.p. 15 min before test, most efficacious dose(s)

| SMILES | AD: ADHD (probability of activity signature) | AG: analgesic (probability of activity signature) | AX: anxiolytic (probability of activity signature) | CE: cognitive enhancer (probability of activity signature) | DP: anti-depressant (probability of activity signature) | MS: mood stabilizer (probability of activity signature) | PS: anti-psychotic (probability of activity signature) | SD: sedative hypnotic (probability of activity signature) | UN: uncharacterized CNS activity (probability of activity signature) |
| --- | --- | --- | --- | --- | --- | --- | --- | --- | --- |
| Cc1ccc2c(c1)CCOCC2N.Cl (stereo not drawn) [Example 36] | + (LOQ ≤ + <5%) | ++ (5% ≤ ++ <25%) | ++ (5% ≤ ++ <25%) | +++ (25% ≤ +++ <50%) | ++ (5% ≤ ++ <25%) | + (LOQ ≤ + <5%) | ++ (5% ≤ ++ <25%) | ++ (5% ≤ ++ <25%) | ++ (5% ≤ ++ <25%) |
| Cc1cccc2c1COCCC2N.Cl (stereo not drawn) [Example 37] | + (LOQ ≤ + <5%) | ++ (5% ≤ ++ <25%) | ++ (5% ≤ ++ <25%) | ++ (5% ≤ ++ <25%) | + (LOQ ≤ + <5%) | + (LOQ ≤ + <5%) | ++ (5% ≤ ++ <25%) | + (LOQ ≤ + <5%) | +++ (25% ≤ +++ <50%) |
| Cl.NC1CCOCc2cc(Cl)ccc21 (stereo not drawn) [Example 38] | + (LOQ ≤ + <5%) | ++ (5% ≤ ++ <25%) | ++ (5% ≤ ++ <25%) | + (LOQ ≤ + <5%) | ++ (5% ≤ ++ <25%) | + (LOQ ≤ + <5%) | ++ (5% ≤ ++ <25%) | + (LOQ ≤ + <5%) | +++ (25% ≤ +++ <50%) |
| Cc1cccc2c1C(N)CCOC2.Cl (stereo not drawn) [Example 39] | + (LOQ ≤ + <5%) | ++ (5% ≤ ++ <25%) | +++ (25% ≤ +++ <50%) | ++ (5% ≤ ++ <25%) | ++ (5% ≤ ++ <25%) | + (LOQ ≤ + <5%) | + (LOQ ≤ + <5%) | + (LOQ ≤ + <5%) | ++++ (50% ≤ ++++) |
| Cl.NC1CCOCc2c(Cl)cccc21 (stereo not drawn) [Example 40] | + (LOQ ≤ + <5%) | ++ (5% ≤ ++ <25%) | +++ (25% ≤ +++ <50%) | ++ (5% ≤ ++ <25%) | + (LOQ ≤ + <5%) | + (LOQ ≤ + <5%) | ++ (5% ≤ ++ <25%) | + (LOQ ≤ + <5%) | ++ (5% ≤ ++ <25%) |
| Cl.NC1CCOCc2cccc(Cl)c21 (stereo not drawn) [Example 41] | + (LOQ ≤ + <5%) | ++ (5% ≤ ++ <25%) | ++ (5% ≤ ++ <25%) | ++ (5% ≤ ++ <25%) | ++ (5% ≤ ++ <25%) | + (LOQ ≤ + <5%) | + (LOQ ≤ + <5%) | + (LOQ ≤ + <5%) | +++ (25% ≤ +++ <50%) |
| Cc1ccc2c(c1C)C(N)COC2.Cl (stereo not drawn) [Example 42, 5,6-Dimethylisochroman-4-amine hydrochloride] | + (LOQ ≤ + <5%) | +++ (25% ≤ +++ <50%) | ++ (5% ≤ ++ <25%) | ++ (5% ≤ ++ <25%) | ++ (5% ≤ ++ <25%) | + (LOQ ≤ + <5%) | +++ (25% ≤ +++ <50%) | ++ (5% ≤ ++ <25%) | +++ (25% ≤ +++ <50%) |
| Cc1ccc2c(c1C)C(N)CCOC2.Cl (stereo not drawn) [Example 43, 6,7-Dimethyl-1,3,4,5-tetrahydrobenzo [c]oxepin-5-amine hydrochloride] | + (LOQ ≤ + <5%) | ++ (5% ≤ ++ <25%) | +++ (25% ≤ +++ <50%) | ++ (5% ≤ ++ <25%) | + (LOQ ≤ + <5%) | + (LOQ ≤ + <5%) | ++ (5% ≤ ++ <25%) | ++ (5% ≤ ++ <25%) | + (LOQ ≤ + <5%) |
| Cl.NC1COCc2ccc(Cl)c(Cl)c21 (stereo not drawn) [Example 44, 5,6-Dichloroisochroman-4-amine hydrochloride] | + (LOQ ≤ + <5%) | ++ (5% ≤ ++ <25%) | +++ (25% ≤ +++ <50%) | ++ (5% ≤ ++ <25%) | ++ (5% ≤ ++ <25%) | + (LOQ ≤ + <5%) | ++ (5% ≤ ++ <25%) | ++ (5% ≤ ++ <25%) | +++ (25% ≤ +++ <50%) |
| Cc1ccc2c(c1Cl)C(N)COC2.Cl (stereo not drawn) [Example 45, 5-Chloro-6-methylisochroman-4-amine hydrochloride] | + (LOQ ≤ + <5%) | ++ (5% ≤ ++ <25%) | +++ (25% ≤ +++ <50%) | ++ (5% ≤ ++ <25%) | ++ (5% ≤ ++ <25%) | + (LOQ ≤ + <5%) | ++ (5% ≤ ++ <25%) | ++ (5% ≤ ++ <25%) | ++++ (50% ≤ ++++) |
| Cc1cc(C)c2c(c1)C(N)COC2.Cl (stereo not drawn) [Example 46, 6,8-Dimethylisochroman-4-amine hydrochloride] | + (LOQ ≤ + <5%) | ++ (5% ≤ ++ <25%) | ++ (5% ≤ ++ <25%) | ++ (5% ≤ ++ <25%) | + (LOQ ≤ + <5%) | + (LOQ ≤ + <5%) | + (LOQ ≤ + <5%) | ++ (5% ≤ ++ <25%) | ++++ (50% ≤ ++++) |
| Cc1ccc(C)c2c1COCC2N.Cl (stereo not drawn) [Example 47, 5,8-Dimethylisochroman-4-amine hydrochloride] | + (LOQ ≤ + <5%) | ++ (5% ≤ ++ <25%) | ++ (5% ≤ ++ <25%) | ++ (5% ≤ ++ <25%) | ++ (5% ≤ ++ <25%) | ++ (5% ≤ ++ <25%) | ++ (5% ≤ ++ <25%) | + (LOQ ≤ + <5%) | ++++ (50% ≤ ++++) |
